Measured values from patent publication US7592003B2, “Regulation of toll-like receptors on stem cells” (Oklahoma Medical Research Foundation, priority 2005, dated 2009).

Columns and labels:
LKS^− cells = assay: Serum-free culture of LKS- myeloid/erythroid progenitors (and CMP, GMP subsets), F4/80 by flow cytometry; type: cell-based, mouse; conditions: 72 h, compared with CSF stimulation
Method: FIGS. 4A-D—Activation of TLRs through MyD88 bypasses normal differentiation cues and drives monocytes/macrophages differentiation of myeloid progenitors. (FIG. 4A) Sorted LKS^− cells from C57BL/6 or MyD88^−/− mice were stimulated with medium alone, LPS (10 μg/ml), Pam3CSK4 (1 μg/ml), M-CSF, or GM-CSF. After 72 h in culture, cells were analyzed by flow cytometry for expression of F4/80. Open histograms depict staining with the isotype matched Ab for F4/80. Percentages given in each histogram indicate the frequencies of F4/80^+ cells and the results are representative of three independent experiments. (FIG. 4B) The bar graph depicts yields, i.e., numbers of F4/80^+ cell recovered per input progenitor. Data represent mean values with standard deviations from triplicate cultures and the results are representative of three independent experiments (*P<0.005). […] After 72 h in culture, cells were analyzed by flow cytometry for expression of F4/80. […] After 24 or 48 h in culture, cells were analyzed by flow cytometry for expression of F4/80. […]
FIG. 13—TLR stimulation causes rapid production of F4/80^+ cells from LKS^− cells. […] Stimulated wells were analyzed after 24 h or 48 h of culture by flow cytometry for expression of F4/80. […]

CLP = assay: Serum-free, stromal cell-free culture of CLP with SCF, FL and IL-7, CD19/Mac-1 flow cytometry; type: cell-based, mouse
Method: FIGS. 6A-D—TLR stimulation allows lymphoid biased progenitors to produce myeloid dendritic cells at the expense of B lymphopoiesis. (FIG. 6A) Sorted CLP (5,000/well) from C57BL/6 or MyD88^−/− mice were stimulated in X-VIVO15 with medium alone, LPS (10 μg/ml) or Pam3CSK4 (100 ng/ml) plus SCF, FL and IL-7. After 7 days in culture, cells were analyzed by flow cytometry for expression of CD19and Mac-1 (left). The bar graphs depict cell yields for CD19^+ cells or Mac-1^+ cells (right) and the data represent mean values with standard deviations from triplicate cultures (*P<0.02). The results are representative of those obtained in five independent experiments. (FIG. 6B) Subsets of the recovered cells described in FIG. 6A were sorted and used to prepare Giemsa stained slides. (FIG. 6C) Cultured cells from C57BL/6 mice were also analyzed by flow cytometry for expression of Gr-1 and CD11c. (FIG. 6D) Sorted CLP from C57BL/6 mice were cultured in the presence of SCF, FL and IL-7 with a range of concentrations of LPS or combination of recombinant mouse CD14-Fc protein (1 μg/ml) plus LPS. After 7 days in culture, cells were analyzed by flow cytometry for expression of CD19 and Mac-1 (left). The bar graph depicts cell yields for CD19^+ cells or Mac-1^+ cells (right). Data represent mean values with standard deviations from triplicate cultures (*P<0.003). […]

## Pam3CSK4
LKS^− cells
  Yields of F4/80+ cells from LKS- cells: consistently a less potent stimulus
CLP; 7 days
  Phenotype (CD11c, Gr-1) of cells produced from CLP: Gr-1^− but less homogenous
CLP; with SCF, FL and IL-7, 7 days
  Cell types emerging from CLP (CD19+ vs Mac-1+): a mixture of the two cell types
